In experiment [1] the target is T1, progesterone receptor (Homo sapiens, UniProt P06401).
T1 construct: expressed in transfected cells; host or cells: CV-1 cells transduced with PRb-BacMam and MMTV-BacMam
T1 sequence (P06401 1-933): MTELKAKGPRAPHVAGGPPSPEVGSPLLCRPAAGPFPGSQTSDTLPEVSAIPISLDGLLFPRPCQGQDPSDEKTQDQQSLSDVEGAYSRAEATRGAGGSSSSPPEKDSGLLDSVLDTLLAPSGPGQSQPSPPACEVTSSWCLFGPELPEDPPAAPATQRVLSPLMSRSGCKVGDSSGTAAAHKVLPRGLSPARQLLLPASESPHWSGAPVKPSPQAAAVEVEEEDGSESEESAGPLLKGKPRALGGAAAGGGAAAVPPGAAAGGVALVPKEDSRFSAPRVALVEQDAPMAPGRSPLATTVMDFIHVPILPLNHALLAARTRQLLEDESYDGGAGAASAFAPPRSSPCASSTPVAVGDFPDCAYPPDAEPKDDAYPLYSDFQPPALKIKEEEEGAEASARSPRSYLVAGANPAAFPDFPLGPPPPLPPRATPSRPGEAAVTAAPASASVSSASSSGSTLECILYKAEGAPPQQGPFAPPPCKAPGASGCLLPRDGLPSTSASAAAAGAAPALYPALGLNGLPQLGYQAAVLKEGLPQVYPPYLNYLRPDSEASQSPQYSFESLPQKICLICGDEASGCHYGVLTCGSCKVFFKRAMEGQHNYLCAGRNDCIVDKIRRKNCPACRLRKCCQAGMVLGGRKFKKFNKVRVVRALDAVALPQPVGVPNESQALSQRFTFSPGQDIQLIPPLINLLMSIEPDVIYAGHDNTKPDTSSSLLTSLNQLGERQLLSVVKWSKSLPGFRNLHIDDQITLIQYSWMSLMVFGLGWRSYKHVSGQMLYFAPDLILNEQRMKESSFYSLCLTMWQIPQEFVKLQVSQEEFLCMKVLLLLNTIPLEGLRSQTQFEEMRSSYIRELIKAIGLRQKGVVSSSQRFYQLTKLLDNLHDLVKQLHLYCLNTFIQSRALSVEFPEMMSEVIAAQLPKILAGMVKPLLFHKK
Briefly: Assay for progesterone receptor activity (CV-1 cells, PRb-BacMam/MMTV-BacMam). It counts as cell-based. Conditions: CV-1 cells transduced with PRb-BacMam and MMTV-BacMam; read-out: pEC50 progesterone receptor activity (converted). The procedure:
A T225 flask of CV-1 cells at a density of 80% confluency was washed with PBS, detached from the flask using 0.25% trypsin and counted using a Sysmex KX-21N. Cells were diluted in DMEM containing 10% Hyclone, 2 mM L-Glutamate and 1% Pen/Strep at 140 cells/μl and transduced with 10% PRb-BacMam and 10% MMTV-BacMam. […] of suspension cells were dispensed to each well of white Nunc 384-well plates, containing compounds at the required concentration. After 24 h 10 μl of Steadylite were added to each well of the plates. Plates were incubated in the dark for 10 min before reading them on a Viewlux reader. Dose response curves were constructed from which pEC50 values were estimated.

Experiment [2] addresses T2, glucocorticoid receptor (Homo sapiens, UniProt P04150).
T2 construct: a partially purified full length glucocorticoid receptor
T2 sequence (P04150 1-777): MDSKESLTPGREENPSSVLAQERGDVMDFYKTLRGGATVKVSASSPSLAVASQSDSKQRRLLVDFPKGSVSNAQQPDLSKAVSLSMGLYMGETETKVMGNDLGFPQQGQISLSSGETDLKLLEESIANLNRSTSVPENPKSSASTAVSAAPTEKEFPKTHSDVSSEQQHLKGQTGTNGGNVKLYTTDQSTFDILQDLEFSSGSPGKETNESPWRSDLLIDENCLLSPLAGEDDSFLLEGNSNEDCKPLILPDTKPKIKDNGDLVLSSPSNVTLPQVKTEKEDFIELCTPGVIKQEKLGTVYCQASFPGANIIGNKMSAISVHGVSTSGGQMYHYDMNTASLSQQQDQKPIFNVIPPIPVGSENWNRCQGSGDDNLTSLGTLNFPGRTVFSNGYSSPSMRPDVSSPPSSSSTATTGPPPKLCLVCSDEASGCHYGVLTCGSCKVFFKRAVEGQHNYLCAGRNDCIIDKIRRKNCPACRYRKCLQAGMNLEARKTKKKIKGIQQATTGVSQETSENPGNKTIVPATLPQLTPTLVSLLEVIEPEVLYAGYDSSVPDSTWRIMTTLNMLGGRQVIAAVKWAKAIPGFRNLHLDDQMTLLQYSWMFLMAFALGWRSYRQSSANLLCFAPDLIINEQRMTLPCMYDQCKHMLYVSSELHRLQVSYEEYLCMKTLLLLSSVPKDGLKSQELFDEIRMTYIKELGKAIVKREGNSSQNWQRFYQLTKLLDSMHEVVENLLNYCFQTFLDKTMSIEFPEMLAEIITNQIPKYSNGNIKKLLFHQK
In words: Glucocorticoid receptor binding assay (fluorescence polarisation). Conditions: competition with Alexa 555 fluorescently-labelled dexamethasone derivative, full length glucocorticoid receptor; read-out: glucocorticoid binding pIC50 (converted). The procedure:
Compounds were solvated and diluted in DMSO, and transferred directly into assay plates. Fluorescent dexamethasone and a partially purified full length glucocorticoid receptor were added to the plates, together with buffer components to stabilise the GR protein and incubated at room temperature for 2 hrs in the dark. Binding of each compound was assessed by analysing the displacement of fluorescent ligand by measuring the decrease in fluorescence polarisation signal from the mixture. Dose response curves were constructed from which pIC50 values were estimated.
In general terms: In fluorescence polarisation assays a small probe gives low polarisation when free and higher when bound to something large.

Experiment [3] concerns NFκB. Briefly: NFκB agonist assay in A549 SPAP cells. It counts as cell-based. Particulars: Homo sapiens; A549 SPAP cells, TNFα 3.2 ng/ml; read-out: pIC50 for the NFkB assay (converted). The text has this:
Human lung carcinoma A549 cell line (ECACC No. 86012804) has been stably transfected in house with a plasmid containing an ELAM promoter sequence that has a NFκB response element within it. Stimulation of the cell line with TNFα results in intracellular signal transduction and ultimately translocation of NFκB into the nucleus. This activates the inserted DNA sequence resulting in transcription of the integrated SPAP gene, which is quantified using a colorimetric assay. […] The stably transfected cell line was grown as a monolayer in DMEM supplemented with FCS-HI (10%), Non-essential amino acids (1%), L-Glutamine (2 mM), Pen/Strep (1%) and Geneticin (50 mg/ml).
A 70% confluent T225 flask of A549 SPAP cells was harvested by centrifugation for 5 min at 200 g, resuspended in assay buffer (DMEM supplemented with 10% FCS 2×HI, 2 mM L-Glutamine, 1% Pen/Strep and Non essential amino acids) and diluted to 0.16×10^6/ml. 60 μl of cell solution was dispensed to each well of clear Nunc 384-well plates, containing compound at the required concentration. Plates were incubated for 1 h at 37° C., 95% humidity, 5% CO2 before 10 μl of TNFα was added at final concentration of 3.2 ng/ml and then returned to the cell incubator for 15 h. Plates were equilibrated to room temperature for 1 h prior to the addition of 25 μl of pNPP buffer (1M Diethanolamine pH 9.8, 0.5 mM MgCl2, 0.28M NaCl, 2 mg/ml pNPP) to each well of assay plates. The plates were covered to protect the reagents from light, and then incubated at room temperature for approximately 1 hour before reading them on an Ascent using a 405 nm single filter. Dose response curves were constructed from which pIC50 values were estimated.

Where only a bound is given, the exact number is not on record here.

Consider `Nc1c(C(=O)NCC(O)(CNC(=O)c2c(F)cccc2F)C(F)(F)F)cnn1-c1ccc(F)cc1` (racemic) [Example 6 (racemic), 5-Amino-N-[2-({[(2,6-difluorophenyl)carbonyl]amino}methyl)-3,3,3-trifluoro-2-hydroxypropyl]-1-(4-fluorophenyl)-1H-pyrazole-4-carboxamide], for which the EC50 in experiment [1] is more than 1 µM.
Consider `Nc1c(C(=O)NCC(O)(CNC(=O)c2c(OC(F)F)cccc2OC(F)F)C(F)(F)F)cnn1-c1ccc(F)cc1` (racemic) [Example 20 (racemic), 5-amino-N-(2-{[({2,6-bis[(difluoromethyl)oxy]phenyl}carbonyl)amino]methyl}-3,3,3-trifluoro-2-hydroxypropyl)-1-(4-fluorophenyl)-1H-pyrazole-4-carboxamide], for which the IC50 in experiment [2] was not above 0.316 µM. In addition, the EC50 in experiment [1] was more than 1 µM.
In the case of `Nc1c(C(=O)NCC(O)(CN(CCF)C(=O)c2c(OC(F)F)cccc2OC(F)F)C(F)(F)F)cnn1-c1ccc(F)cc1` (racemic) [Example 32 (racemic), 5-amino-N-(2-{[({2,6-bis[(difluoromethyl)oxy]phenyl}carbonyl)(2-fluoroethyl)amino]methyl}-3,3,3-trifluoro-2-hydroxypropyl)-1-(4-fluorophenyl)-1H-pyrazole-4-carboxamide], the IC50 was not above 0.316 µM in experiment [2] and less than 1 µM in experiment [3]. In addition, the EC50 in experiment [1] was more than 1 µM.
The corresponding values for `Nc1c(C(=O)NCC(O)(CNC(=O)c2c(F)cccc2OC(F)F)C(F)(F)F)cnn1-c1ccc(F)cc1` (racemic) [Example 48 (racemic), 5-Amino-N-(2-{[({2-[(difluoromethyl)oxy]-6-fluorophenyl}carbonyl)amino]methyl}-3,3,3-trifluoro-2-hydroxypropyl)-1-(4-fluorophenyl)-1H-pyrazole-4-carboxamide] are not above 0.316 µM, less than 1 µM and more than 1 µM.
The corresponding values for `CCN(CC(O)(CNC(=O)c1cnn(-c2ccc(F)cc2)c1N)C(F)(F)F)C(=O)c1c(Cl)cccc1Cl` (single isomer, unassigned) [Example 2 Enantiomer 1, 5-Amino-N-(2-{[[(2,6-dichlorophenyl)carbonyl](ethyl)amino]methyl}-3,3,3-trifluoro-2-hydroxypropyl)-1-(4-fluorophenyl)-1H-pyrazole-4-carboxamide] are not above 0.316 µM, less than 1 µM and more than 1 µM.
For `CCN(CC(O)(CNC(=O)c1cnn(-c2ccc(F)cc2)c1N)C(F)(F)F)C(=O)c1c(F)cccc1Cl` (single isomer, unassigned) [Example 4 Enantiomer 1, 5-Amino-N-(2-{[[(2-chloro-6-fluorophenyl)carbonyl](ethyl)amino]methyl}-3,3,3-trifluoro-2-hydroxypropyl)-1-(4-fluorophenyl)-1H-pyrazole-4-carboxamide], the IC50 in experiment [2] was not above 0.316 µM; in experiment [3], less than 1 µM. Moreover, the EC50 in experiment [1] was more than 1 µM.
For `Nc1c(C(=O)NCC(O)(CNC(=O)c2c(F)cccc2Cl)C(F)(F)F)cnn1-c1ccc(F)cc1` (single isomer, unassigned) [Example 7 Enantiomer 1, 5-Amino-N-[2-({[(2-chloro-6-fluorophenyl)carbonyl]amino}methyl)-3,3,3-trifluoro-2-hydroxypropyl]-1-(4-fluorophenyl)-1H-pyrazole-4-carboxamide], the IC50 in experiment [3] was less than 1 µM. In addition, the EC50 in experiment [1] is more than 1 µM.
As to `Nc1c(C(=O)NCC(O)(CNC(=O)c2c(C(F)(F)F)cccc2C(F)(F)F)C(F)(F)F)cnn1-c1ccc(F)cc1` (single isomer, unassigned) [Example 15 Enantiomer 2, 5-amino-N-{2-[({[2,6-bis(trifluoromethyl)phenyl]carbonyl}amino)methyl]-3,3,3-trifluoro-2-hydroxypropyl}-1-(4-fluorophenyl)-1H-pyrazole-4-carboxamide], the IC50 in experiment [3] was less than 1 µM.

The values above are taken from US8247377B2, “Non-steroidal glucocorticoid inhibitors and their use in treating inflammation, allergy and auto-immune conditions” (Glaxo Group Limited, priority 2006, dated 2012).
